Test results taken from the supplement of paper PMC10307832.

Legend:
Assay in all cases: relative viability (nuclei count vs DMSO), 5 days (fraction); higher = more cells survive
[1] = compound: CN1CCC(CC1)OC2=CC(=C(C=C2)NC3=NC=C4C(=N3)N(C(=O)N4C)C5CCCC5)OC [AZ3146] + C[C@@H](Oc1cc(-c2cnn(C3CCNCC3)c2)cnc1N)c1c(Cl)ccc(F)c1Cl [Crizotinib] (partner 1 µM)
Procedure, shortened: (§1)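 Relative viability divides the nuclei count in treated wells by that in vehicle wells. Lung cancer cell lines were seeded in 1536-well plates, dosed by pin tool the next day, and fixed and stained after 5 days in one step with final 0.05% Triton X-100, 1% formaldehyde and 1 ug/ml Hoechst. Dosing was a single drug or a fixed anchor-drug dose plus five library-drug doses (not always all listed) in √10 steps, and values are medians of duplicate plates imaged at 4×.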

[2] = compound: CN1CCC(CC1)OC2=CC(=C(C=C2)NC3=NC=C4C(=N3)N(C(=O)N4C)C5CCCC5)OC [AZ3146] + O=C(c1cc(Cc2n[nH]c(=O)c3ccccc23)ccc1F)N1CCN(C(=O)C2CC2)CC1 [Olaparib] (partner 8 µM)
Procedure, shortened: as §1

[3] = compound: CN1CCC(CC1)OC2=CC(=C(C=C2)NC3=NC=C4C(=N3)N(C(=O)N4C)C5CCCC5)OC [AZ3146] + Nc1nc2[nH]cc(CCc3ccc(C(=O)N[C@@H](CCC(=O)O)C(=O)O)cc3)c2c(=O)[nH]1 [Pemetrexed] (partner 0.2 µM)
Procedure, shortened: as §1

[4] = compound: CCOC(=O)CCNc1cc(N2CCc3ccccc3CC2)nc(-c2ccccn2)n1 [GSK-J4] + C[C@]1(O)C[C@@H](c2nc(-c3ccc4ccc(-c5ccccc5)nc4c3)c3c(N)nccn32)C1 [Linsitinib] (partner 1 µM)
Procedure, shortened: as §1

Cell Line | relative viability ([1]; first compound 0.08 µM) | relative viability ([1]; first compound 0.253 µM) | relative viability ([1]; first compound 0.8 µM) | relative viability ([1]; first compound 2.53 µM) | relative viability ([1]; first compound 8 µM) | relative viability ([2]; first compound 0.08 µM) | relative viability ([2]; first compound 0.253 µM) | relative viability ([2]; first compound 0.8 µM) | relative viability ([2]; first compound 2.53 µM) | relative viability ([2]; first compound 8 µM) | relative viability ([3]; first compound 0.08 µM) | relative viability ([3]; first compound 0.253 µM) | relative viability ([3]; first compound 0.8 µM) | relative viability ([3]; first compound 2.53 µM) | relative viability ([3]; first compound 8 µM) | relative viability ([4]; first compound 0.5 µM) | relative viability ([4]; first compound 1.581 µM) | relative viability ([4]; first compound 5 µM) | relative viability ([4]; first compound 15.81 µM) | relative viability ([4]; first compound 50 µM)
NCI-H1915 | 0.878 | 0.905 | 0.852 | 0.896 | 0.82 | 0.24 | 0.283 | 0.271 | 0.277 | 0.312 | 0.502 | 0.517 | 0.602 | 0.511 | 0.49 | 1.06 | 0.722 | 1.09 | 1.07 | 1.11
HOP-62 | 0.946 | 0.955 | 0.917 | 1.09 | 0.601 | 0.48 | 0.345 | 0.44 | 0.361 | 0.359 | 0.242 | 0.328 | 0.339 | 0.305 | 0.365 | 0.952 | 0.78 | 0.83 | 0.835 | 0.855
LCLC-103H | 0.987 | 1.08 | 0.984 | 1.08 | 1.11 | 0.755 | 0.765 | 0.778 | 0.749 | 0.745 | 0.429 | 0.439 | 0.444 | 0.49 | 0.499 | 0.914 | 0.978 | 1.12 | 1.06 | 1.04
NCI-H460 | 0.729 | 0.844 | 0.664 | 0.11 | 0.0243 | 0.242 | 0.45 | 0.416 | 0.449 | 0.352 | 0.0552 | 0.0628 | 0.0797 | 0.06 | 0.0682 | 0.821 | 0.584 | 0.836 | 0.691 | 0.581
NCI-H441 | 0.646 | 0.658 | 0.774 | 0.773 | 0.658 | 0.519 | 0.645 | 0.603 | 0.678 | 0.523 | 0.256 | 0.251 | 0.251 | 0.266 | 0.274 | 0.664 | 0.325 | 0.602 | 0.532 | 0.511
SK-LU-1 | 1.1 | 1.11 | 1.03 | 0.985 | 0.471 | 0.452 | 0.496 | 0.414 | 0.445 | 0.441 | 0.921 | 1.03 | 0.961 | 1.06 | 0.879 | 1.08 | 1.18 | 0.716 | 0.911 | 0.777
NCI-H2228 | 0.537 | 0.503 | 0.423 | 0.396 | 0.369 | 0.873 | 0.632 | 0.672 | 0.503 | 0.544 | 0.297 | 0.325 | 0.333 | 0.298 | 0.37 | 0.483 | 0.721 | 0.748 | 0.746 | 1.04
LCLC-97TM1 |  |  | 0.485 | 0.352 | 0.304 | 0.52 | 0.535 | 0.458 | 0.447 | 0.345 | 0.142 | 0.184 | 0.233 | 0.192 | 0.163 |  |  | 0.213 | 0.23 | 0.146
